Experimental data taken from the supplement of paper PMC10307832.

Experiments:
Experiment in all cases: relative viability (nuclei count vs DMSO), 5 days (fraction); higher = more cells survive
Dabrafenib + Bortezomib = compound: CC(C)(C)c1nc(-c2cccc(NS(=O)(=O)c3c(F)cccc3F)c2F)c(-c2ccnc(N)n2)s1 [Dabrafenib] + CC(C)C[C@H](NC(=O)[C@H](Cc1ccccc1)NC(=O)c1cnccn1)B(O)O [Bortezomib] (partner 0.002 µM)
How it was run: (§1)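 Relative viability is defined as nuclei in treated wells over nuclei in vehicle wells. Duplicate plates were run and medians reported. Lung cancer cell lines in 1536-well plates were dosed by pin tool one day after seeding, with one drug or with a fixed anchor-drug dose plus five library-drug doses (not always all listed) in √10 steps, and nuclei were counted after 5 days.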

Dabrafenib + Linsitinib = compound: CC(C)(C)c1nc(-c2cccc(NS(=O)(=O)c3c(F)cccc3F)c2F)c(-c2ccnc(N)n2)s1 [Dabrafenib] + C[C@]1(O)C[C@@H](c2nc(-c3ccc4ccc(-c5ccccc5)nc4c3)c3c(N)nccn32)C1 [Linsitinib] (partner 1 µM)
How it was run: as §1

VX-702 + Palbociclib = compound: NC(=O)c1ccc(N(C(N)=O)c2c(F)cccc2F)nc1-c1ccc(F)cc1F [VX-702] + CC(=O)c1c(C)c2cnc(Nc3ccc(N4CCNCC4)cn3)nc2n(C2CCCC2)c1=O [Palbociclib] (partner 0.5 µM)
How it was run: as §1

VX-702 + Dasatinib = compound: NC(=O)c1ccc(N(C(N)=O)c2c(F)cccc2F)nc1-c1ccc(F)cc1F [VX-702] + Cc1nc(Nc2ncc(C(=O)Nc3c(C)cccc3Cl)s2)cc(N2CCN(CCO)CC2)n1 [Dasatinib] (partner 0.075 µM)
How it was run: as §1

Cell Line | relative viability (Dabrafenib + Bortezomib; first compound 0.003 µM) | relative viability (Dabrafenib + Bortezomib; first compound 0.009487 µM) | relative viability (Dabrafenib + Bortezomib; first compound 0.03 µM) | relative viability (Dabrafenib + Bortezomib; first compound 0.09487 µM) | relative viability (Dabrafenib + Bortezomib; first compound 0.3 µM) | relative viability (Dabrafenib + Linsitinib; first compound 0.003 µM) | relative viability (Dabrafenib + Linsitinib; first compound 0.009487 µM) | relative viability (Dabrafenib + Linsitinib; first compound 0.03 µM) | relative viability (Dabrafenib + Linsitinib; first compound 0.09487 µM) | relative viability (Dabrafenib + Linsitinib; first compound 0.3 µM) | relative viability (VX-702 + Palbociclib; first compound 0.02 µM) | relative viability (VX-702 + Palbociclib; first compound 0.2 µM) | relative viability (VX-702 + Palbociclib; first compound 0.6325 µM) | relative viability (VX-702 + Palbociclib; first compound 2 µM) | relative viability (VX-702 + Dasatinib; first compound 0.02 µM) | relative viability (VX-702 + Dasatinib; first compound 0.2 µM) | relative viability (VX-702 + Dasatinib; first compound 0.6325 µM) | relative viability (VX-702 + Dasatinib; first compound 2 µM)
RERF-LC-KJ | 1.02 | 1.33 | 1.05 | 1.05 | 1.13 | 0.876 | 0.989 | 0.871 | 0.83 | 1.01 | 1 | 1.57 | 1.14 | 1.19 | 0.837 | 0.781 | 0.87 | 0.901
SK-LU-1 |  | 1.12 |  | 0.607 | 0.871 | 0.799 | 1 | 0.813 | 0.968 | 0.833 | 0.38 | 0.355 | 0.382 | 0.395 | 0.222 | 0.177 | 0.196 | 0.206
SW 1573 | 1.11 | 1.16 | 1.13 | 0.996 | 1.17 | 0.827 | 0.844 | 0.722 | 0.792 | 0.821 | 0.422 | 0.395 | 0.32 | 0.318 | 0.566 | 0.455 | 0.427 | 0.426
UMC-11 | 1.05 | 0.637 | 0.647 | 0.681 | 0.735 | 1.12 | 1.09 | 0.985 | 0.982 | 1.03 | 0.319 | 0.327 | 0.336 | 0.309 | 0.456 | 0.379 | 0.386 | 0.492
